Source: PMC3904387 (ACS medicinal chemistry letters, 2013)

Columns and labels:
[1] = tested on: Madin-Darby canine kidney (MDCK) cells
[2] = tested on: PR8 H1N1 infected MDCK cells; assay type: cell-based

| SMILES | cytotoxicity (in words) [1] | antiviral activity (in words) [2] |
| --- | --- | --- |
| O=C(N/N=C\c1cccc(Cl)c1Cl)c1ccc(O)c(O)c1 [compound 6] | cytotoxic | – |
| Cc1ccccc1/C=N\NC(=O)c1ccc(O)c(O)c1 [compound 7] | lacking cytotoxicity | lacking cytotoxicity and antiviral activity |
| COc1ccccc1N1CCN(/N=C/c2ccc(O)c(O)c2)CC1 [compound 8] | cytotoxic | – |
| C/C(=N/NC(=O)c1ccc(O)c(O)c1)c1ccc(C)cc1 [compound 9] | lacks antiviral activity and cytotoxicity | lacks antiviral activity |
| O=C1CC2(CCCCC2)Oc2c1ccc(O)c2O [compound 11] | lack cytotoxicity | lack cytotoxicity and antiviral activity |
| CC(=O)N1CCC2(CC1)CC(=O)c1ccc(O)c(O)c1O2 [compound 12] | lack cytotoxicity | lack cytotoxicity and antiviral activity |
| O=C(Cc1ccccc1Cl)c1ccc(O)c(O)c1O [compound 14] | neither cytotoxic | neither cytotoxic nor active against virally infected cells |
